According to patent publication US20080199899A1, “Method For Screening Modulators of Mitochondrial Functioning and New Modulators Obtained” (priority 2002, published 2008):
Positions of bridges follow the written chain, without caps; N, C: chain ends. No end group written: not given here.

Tested on: Human umbilical vein endothelial cells (HUVEC)
Experiment: Apoptosis of HUVEC by FACS analysis after 7AAD staining
Assay type: cell-based
Conditions: 5 to 30 μM, 24 to 96 h; FIG. 13
Experimental: Human umbilical vein endothelial cells were treated with Seq.
HUVEC cells were incubated for 24 to 96 h with 5 or 30 μM of peptide Seq. ID n 5, control peptide, or left untreated. Apoptosis was characterized by FACS analysis after 7AAD staining. A. Dose-response versus control peptide. B. Increasing incubation times with or without 10 μM peptides and staining with 7AAD and detection by FACS analysis.

For “GG*CRGDMFG*CGGLLFIHFRIGSRHSRIG (GGCRGDMFGCGGLLFIHFRIGSRHSRIG; disulfide 3-10) [SEQ ID N^o 5]”, which “apoptosis of HUVEC (in words)” value is on record?
The value was “apoptosis induction”.
